From patent US20150284683A1, “METHOD, COMBINATION AND/OR COMPOSITION FOR INDUCING CARDIOMYOCYTE DIFFERENTATION” (SINGAPORE HEALTH SERVICES LTD, priority 2012, published 2015)

How the values were obtained:
Type in all cases: cell-based, human
[1] = test system: hESC (H9) cell line; experiment: Embryoid body (EB) cardiac differentiation, beating EBs, hESC H9; conditions: SB203580 5 μM day 2 to day 8
Procedure: (§1) Human ES cells (H9; Wicell, USA) and iPS cells (MSnviPSNF2 (C2) and MSnviPSNF3 (C3); both described in Mehta et al., 2011) were maintained on 1% matrigel (BD Biosciences, CA, USA) and grown in chemically defined mTeSR1 medium (Stem Cell Technologies, VA, Canada). Differentiated areas (<10%) were manually removed periodically with a scraper and prior to passaging. Pluripotent stem cells were subsequently washed with DMEM-F12 (Invitrogen, CA, USA) and incubated with 1 mg/ml dispase (Stem Cell Technologies, VA, Canada) for 5-7 minutes. Subsequently, cells colonies were washed using DMEM-F12 and carefully cut into small clumps of approximately 50-70 μm in size before being scrapped from the surface of the culture dishes. […]
(§2) Subsequently, addition of different small molecules (components) were carried out at various stages of differentiation, either alone or in combination with at least one other component (FIG. 1): SB 203580 daily from day 2 through to day 8 from EB induction; Wnt modulator IWP4 daily from day 4 through to day 8 from EB induction, CSA daily from day 4 through to day 8 from EB induction, and ROS activator H2O2 on day 8 (15 min prior to plating). […] All EBs were evaluated morphologically under the microscope at 4× magnification for 10-15 seconds. […]

[2] = test system: hiPSC C3 cell line; experiment: Embryoid body (EB) cardiac differentiation, beating EBs, hiPSC C3
Procedure: as §1, §2

[3] = test system: H3-Nkx2.5-GFP line; experiment: Spin EB contraction during protocol standardization (Example 2); conditions: only 10 uM SB203580; EBs of 2,500 to 7,500 cells
Procedure: Briefly, hiPSC/hESC lines were pre-treated with 10 μM Y27632 (Stem Cell Technologies, VA, Canada) for 4 h before dissociating them to single cells with. Accutase (Stem Cell Technologies, VA, Canada). Cells were aggregated in spin EBs of 5000 cells/EB in AggreWell™ 800 (Stem Cell Technologies, VA, Canada) in media A (mTesR1: DMEM-F12-B27 (1:1) with 4 mg/mL PVA) with Ascorbic acid (284 μM) and BMP4 ([…]) and centrifuged at 300 g for 5 min and incubated overnight. […] […] […] EBs were plated on day 8 in EB2 medium (DMEM-F12 with 2% FBS) on 0.1% gelatin coated dishes. Beating areas were clearly observed between day 10-14 depending on different cell lines. Beating areas were manually dissected out after day 14 of differentiation and utilized for all experiments.
To maintain consistency in differentiation efficiency, an EB based protocol was utilised to recapitulate early cardiac development that hinges on stage-specific activation and inhibition′ of Wnt/β-catenin along with BMP modulation. All initial experiments were performed using H3-Nkx2.5-GFP line to standardize the protocol. Spin EBs of different sizes (1,000, 2,500, 5,000, 7,500 and 10,000 cells/EB) were made and it was observed that EBs of 2,500 to 7,500 cells gave contracting cardiomyocytes by day 14-15 using only 10 uM SB203580 (FIG. 11B; Non-treated), with highest efficiencies with 5,000 cell EBs. Next. […]

[4] = test system: hiPSC C2 cell line; experiment: Embryoid body (EB) cardiac differentiation, beating EBs, hiPSC C2
Procedure: as §1, §2

[5] = test system: H3-Nkx2.5-GFP line; experiment: Real-time PCR gene expression during standardization of differentiation (Example 2); conditions: Treated S1+S2+VEGF
Procedure: For real-time reverse-transcription polymerase chain reaction (qRT-PCR) analysis, RNA was isolated with the RNeasy kit (Qiagen GmbH, Hilden, Germany). One μg of total RNA was converted to complementary DNA. by Superscript III first-strand synthesis system (Invitrogen, CA, USA). cDNA template (5 ng) was used from each sample and SYBR green real-time PCR studies were performed using Quantifast kit (Qiagen GmbH, Hilden, Germany) and primer (Supplementary table 1) as per the kit instructions. Samples were cycled with RotorGene Q (Qiagen GmbH, Hilden, Germany) as follows: 5 minutes at 95° C., followed by 40 cycles of 10 seconds at 95° C. and 30 second extension at 60° C. All experiments were performed in triplicates. Relative quantification was calculated according to the ΔΔCt method for quantitative real-time PCR (using an endogenous control gene, GAPDH). For each gene, the expression at a specific day was then normalized by its baseline values. Heatmaps were generated from Ct values using Genesis software.
To maintain consistency in differentiation efficiency, an EB based protocol was utilised to recapitulate early cardiac development that hinges on stage-specific activation and inhibition′ of Wnt/β-catenin along with BMP modulation. All initial experiments were performed using H3-Nkx2.5-GFP line to standardize the protocol. […]

[6] = SB203580 5 μM day 2-8, without or with CSA 3 μg/ml day 4-8, 21 days
[7] = titration 1, 3, 5, 7 μM with SB203580 5 μM and CSA 3 μg/ml

Compound: C[S+]([O-])c1ccc(-c2nc(-c3ccc(F)cc3)c(-c3ccncc3)[nH]2)cc1 (centres unmarked) [SB203580, 4-[4-(4-fluorophenyl)-2-(4-methylsulfinylphenyl)-1H-imidazol-5-yl]pyridine]
- day spontaneous beating clusters were first observed [1]: 14 days
- percentage of total EBs plated found to be beating ([1]; after 21 days): 16.6%
- cardiac-inducing effect [2, 6]: no cardiac-inducing effect
- day by which EBs gave contracting cardiomyocytes [3]: 14 to 15 days
- cardiac-inducing effect [4, 6]: no cardiac-inducing effect

Compound: COc1ccccc1-n1c(SCC(=O)Nc2nc3ccc(C)cc3s2)nc2c(c1=O)SCC2 [IWP4, 2-(3,4,6,7-tetrahydro-3-(2-methoxyphenyl)-4-oxothieno[3,2-d]pyrimidin-2-ylthio)-N-(6-methylbenzo[d]thiazol-2-yl)acetamide]
- IWP4 concentration at which induction of contracting loci peaked [2, 7]: 5 µM
- IWP4 concentration at which induction of contracting loci peaked [4, 7]: 5 µM

Compound: VEGF
- gene expression change [5]: substantially increased gene expression levels of Wnt11
